Data published in patent US20240360178A1, “MACROCYCLIC IMMUNOMODULATORS” (Bristol-Myers Squibb Company, priority 2021, published 2024).
Positions of bridges follow the written chain, without caps; N, C: chain ends. Non-standard residues stand in square brackets, D forms with d. Residues, ends and D or L forms follow the SMILES beside them. ξ: configuration not given here. *: point of attachment. Phe(4-COOH) = N[C@@H](Cc1ccc(C(=O)O)cc1)C(=O)O; Bip = N[C@@H](Cc1ccc(-c2ccccc2)cc1)C(=O)O; Phe(3-Me) = Cc1cccc(C[C@H](N)C(=O)O)c1; NMeY = CN[C@@H](Cc1ccc(O)cc1)C(=O)O; NMeF = CN[C@@H](Cc1ccccc1)C(=O)O; 4Pal = N[C@@H](Cc1ccncc1)C(=O)O; Cha = N[C@@H](CC1CCCCC1)C(=O)O; Carboxymethyl = O=C(O)C*; Orn = NCCC[C@H](N)C(=O)O; Dab = NCC[C@H](N)C(=O)O; Dap = NC[C@H](N)C(=O)O; ξV = CC(C)C(N)C(=O)O

Molecular target: T1, human PD-1 (Jurkat-PD-1 cells) / PE-labeled human PD-L1-Ig (Homo sapiens, UniProt Q15116)
T1 construct: expressed in transfected cells; host or cells: Jurkat cell line over-expressing human PD-1
T1 sequence (Q15116 25-288): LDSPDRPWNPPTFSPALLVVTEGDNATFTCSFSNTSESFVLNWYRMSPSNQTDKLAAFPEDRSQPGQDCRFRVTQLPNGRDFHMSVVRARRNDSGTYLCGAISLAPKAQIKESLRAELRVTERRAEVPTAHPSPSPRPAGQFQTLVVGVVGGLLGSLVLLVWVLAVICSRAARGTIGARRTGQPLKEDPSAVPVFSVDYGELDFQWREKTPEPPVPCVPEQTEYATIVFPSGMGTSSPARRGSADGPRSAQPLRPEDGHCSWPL
Assay: Jurkat-PD-1 Cell Binding High-Content Screening Assay (CBA); Jurkat hPD1-PDL1 assay
Settings: Jurkat cell line over-expressing human PD-1; PE-labeled PD-L1-Ig 20 nM final; compound incubated 2 hours at 37° C.; read-out: Jurkat HPD1-PDL1 IC50
Procedure, shortened: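 Jurkat cells over-expressing human PD-1, seeded in DMEM with 10% fetal calf serum, were preincubated with compound for 2 hours at 37° C. PE-labeled human PD-L1-Ig was then added at 20 nM final, and cell-bound fluorescence was read by high-content imaging.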

IC50 [nM]	Structure (SMILES)
70	CC(C)C1NC(=O)[C@H](Cc2c[nH]c3ccccc23)NC(=O)[C@H](CC(=O)O)NC(=O)[C@H](Cc2ccc(OCC(=O)O)cc2)NC(=O)[C@H](CN)NC(=O)CSC[C@@H](C(=O)N[C@@H](C)C(N)=O)NC(=O)[C@H]([C@@H](C)O)NC(=O)[C@H](C(C)C)NC(=O)[C@H](CC2CCCCC2)NC(=O)[C@H](CCN)NC(=O)[C@H](Cc2ccccc2)N(C)C(=O)[C@H](CCCN)NC(=O)[C@H](CCC(=O)O)NC(=O)[C@H](Cc2ccc(-c3ccccc3)cc2)NC1=O (stereo partly drawn) [Example 1442] ({CH2CO}-[Dap]Y(Carboxymethyl)DW[ξV][Bip]E[Orn][NMeF][Dab][Cha]VTCA-NH2; thioether N-14)
80	CC(C)C1NC(=O)[C@H](Cc2c[nH]c3ccccc23)NC(=O)[C@H](CC(=O)O)NC(=O)[C@H](Cc2ccc(C(=O)O)cc2)NC(=O)[C@H](Cc2ccc(OCC(=O)O)cc2)NC(=O)CSC[C@@H](C(=O)N[C@@H](C)C(N)=O)NC(=O)[C@H]([C@@H](C)O)NC(=O)[C@H](C(C)C)NC(=O)[C@H](CC2CCCCC2)NC(=O)[C@H](CCN)NC(=O)[C@H](Cc2ccccc2)N(C)C(=O)[C@H](CCCN)NC(=O)[C@H](CCC(=O)O)NC(=O)[C@H](Cc2ccc(-c3ccccc3)cc2)NC1=O (stereo partly drawn) [Example 1443] ({CH2CO}-Y(Carboxymethyl)[Phe(4-COOH)]DW[ξV][Bip]E[Orn][NMeF][Dab][Cha]VTCA-NH2; thioether N-14)
50	Cc1cccc(C[C@@H]2NC(=O)[C@H](CC(=O)O)NC(=O)[C@H](Cc3ccc(C(=O)O)cc3)NC(=O)[C@H](Cc3ccncc3)NC(=O)CSC[C@@H](C(=O)N[C@@H](C)C(N)=O)NC(=O)[C@H]([C@@H](C)O)NC(=O)[C@H](C(C)C)NC(=O)[C@H](CC3CCCCC3)NC(=O)[C@H](CCN)NC(=O)[C@H](Cc3ccccc3)N(C)C(=O)[C@H](CCCN)NC(=O)[C@H](CCC(=O)O)NC(=O)[C@H](Cc3ccc(-c4ccccc4)cc3)NC(=O)C(C(C)C)NC2=O)c1 (stereo partly drawn) [Example 1444] ({CH2CO}-[4Pal][Phe(4-COOH)]D[Phe(3-Me)][ξV][Bip]E[Orn][NMeF][Dab][Cha]VTCA-NH2; thioether N-14)
10	Cc1cccc(C[C@@H]2NC(=O)[C@H](CC(=O)O)NC(=O)[C@H](Cc3ccncc3)NC(=O)[C@H](CN)NC(=O)CSC[C@@H](C(=O)N[C@@H](C)C(N)=O)NC(=O)[C@H]([C@@H](C)O)NC(=O)[C@H](C(C)C)NC(=O)[C@H](CC3CCCCC3)NC(=O)[C@H](CCN)NC(=O)[C@H](Cc3ccccc3)N(C)C(=O)[C@H](CCCN)NC(=O)[C@H](CCC(=O)O)NC(=O)[C@H](Cc3ccc(-c4ccccc4)cc3)NC(=O)C(C(C)C)NC2=O)c1 (stereo partly drawn) [Example 1445] ({CH2CO}-[Dap][4Pal]D[Phe(3-Me)][ξV][Bip]E[Orn][NMeF][Dab][Cha]VTCA-NH2; thioether N-14)
20	Cc1cccc(C[C@@H]2NC(=O)[C@H](CC(=O)O)NC(=O)[C@H](Cc3ccncc3)NC(=O)[C@H](Cc3ccc(OCC(=O)O)cc3)NC(=O)CSC[C@@H](C(=O)N[C@@H](C)C(N)=O)NC(=O)[C@H]([C@@H](C)O)NC(=O)[C@H](C(C)C)NC(=O)[C@H](CC3CCCCC3)NC(=O)[C@H](CCN)NC(=O)[C@H](Cc3ccccc3)N(C)C(=O)[C@H](CCCN)NC(=O)[C@H](CCC(=O)O)NC(=O)[C@H](Cc3ccc(-c4ccccc4)cc3)NC(=O)C(C(C)C)NC2=O)c1 (stereo partly drawn) [Example 1446] ({CH2CO}-Y(Carboxymethyl)[4Pal]D[Phe(3-Me)][ξV][Bip]E[Orn][NMeF][Dab][Cha]VTCA-NH2; thioether N-14)
30	Cc1cccc(C[C@@H]2NC(=O)[C@H](CC(=O)O)NC(=O)[C@H](Cc3ccc(O)cc3)NC(=O)[C@H](CC(N)=O)NC(=O)CSC[C@@H](C(=O)N[C@@H](C)C(N)=O)NC(=O)[C@H]([C@@H](C)O)NC(=O)[C@H](C(C)C)NC(=O)[C@H](CC3CCCCC3)NC(=O)[C@H](CCN)NC(=O)[C@H](Cc3ccccc3)N(C)C(=O)[C@H](CCCN)NC(=O)[C@H](CCC(=O)O)NC(=O)[C@H](Cc3ccc(-c4ccccc4)cc3)NC(=O)C(C(C)C)NC2=O)c1 (stereo partly drawn) [Example 1447] ({CH2CO}-NYD[Phe(3-Me)][ξV][Bip]E[Orn][NMeF][Dab][Cha]VTCA-NH2; thioether N-14)
30	Cc1cccc(C[C@@H]2NC(=O)[C@H](CC(=O)O)NC(=O)[C@H](Cc3ccc(OCC(=O)O)cc3)NC(=O)[C@H](CN)NC(=O)CSC[C@@H](C(=O)N[C@@H](C)C(N)=O)NC(=O)[C@H]([C@@H](C)O)NC(=O)[C@H](C(C)C)NC(=O)[C@H](CC3CCCCC3)NC(=O)[C@H](CCN)NC(=O)[C@H](Cc3ccccc3)N(C)C(=O)[C@H](CCCN)NC(=O)[C@H](CCC(=O)O)NC(=O)[C@H](Cc3ccc(-c4ccccc4)cc3)NC(=O)C(C(C)C)NC2=O)c1 (stereo partly drawn) [Example 1448] ({CH2CO}-[Dap]Y(Carboxymethyl)D[Phe(3-Me)][ξV][Bip]E[Orn][NMeF][Dab][Cha]VTCA-NH2; thioether N-14)
30	Cc1cccc(C[C@@H]2NC(=O)[C@H](CC(=O)O)NC(=O)[C@H](Cc3ccc(C(=O)O)cc3)NC(=O)[C@H](Cc3ccc(OCC(=O)O)cc3)NC(=O)CSC[C@@H](C(=O)N[C@@H](C)C(N)=O)NC(=O)[C@H]([C@@H](C)O)NC(=O)[C@H](C(C)C)NC(=O)[C@H](CC3CCCCC3)NC(=O)[C@H](CCN)NC(=O)[C@H](Cc3ccccc3)N(C)C(=O)[C@H](CCCN)NC(=O)[C@H](CCC(=O)O)NC(=O)[C@H](Cc3ccc(-c4ccccc4)cc3)NC(=O)C(C(C)C)NC2=O)c1 (stereo partly drawn) [Example 1449] ({CH2CO}-Y(Carboxymethyl)[Phe(4-COOH)]D[Phe(3-Me)][ξV][Bip]E[Orn][NMeF][Dab][Cha]VTCA-NH2; thioether N-14)
210	CC(C)C1NC(=O)[C@H](Cc2c[nH]c3ccccc23)NC(=O)[C@H](CC(=O)O)NC(=O)[C@H](Cc2ccc(C(=O)O)cc2)NC(=O)[C@H](Cc2ccncc2)NC(=O)CSC[C@@H](C(=O)N[C@@H](C)C(N)=O)NC(=O)[C@H]([C@@H](C)O)NC(=O)[C@H](C(C)C)NC(=O)[C@H](CC2CCCCC2)NC(=O)[C@H](CCN)NC(=O)[C@H](Cc2ccc(O)cc2)N(C)C(=O)[C@H](CCCN)NC(=O)[C@H](CCC(=O)O)NC(=O)[C@H](Cc2ccc(-c3ccccc3)cc2)NC1=O (stereo partly drawn) [Example 1450] ({CH2CO}-[4Pal][Phe(4-COOH)]DW[ξV][Bip]E[Orn][NMeY][Dab][Cha]VTCA-NH2; thioether N-14)
520	CC(C)C1NC(=O)[C@H](Cc2c[nH]c3ccccc23)NC(=O)[C@H](CC(=O)O)NC(=O)[C@H](Cc2ccncc2)NC(=O)[C@H](CN)NC(=O)CSC[C@@H](C(=O)N[C@@H](C)C(N)=O)NC(=O)[C@H]([C@@H](C)O)NC(=O)[C@H](C(C)C)NC(=O)[C@H](CC2CCCCC2)NC(=O)[C@H](CCN)NC(=O)[C@H](Cc2ccc(O)cc2)N(C)C(=O)[C@H](CCCN)NC(=O)[C@H](CCC(=O)O)NC(=O)[C@H](Cc2ccc(-c3ccccc3)cc2)NC1=O (stereo partly drawn) [Example 1451] ({CH2CO}-[Dap][4Pal]DW[ξV][Bip]E[Orn][NMeY][Dab][Cha]VTCA-NH2; thioether N-14)
140	CC(C)C1NC(=O)[C@H](Cc2c[nH]c3ccccc23)NC(=O)[C@H](CC(=O)O)NC(=O)[C@H](Cc2ccncc2)NC(=O)[C@H](Cc2ccc(OCC(=O)O)cc2)NC(=O)CSC[C@@H](C(=O)N[C@@H](C)C(N)=O)NC(=O)[C@H]([C@@H](C)O)NC(=O)[C@H](C(C)C)NC(=O)[C@H](CC2CCCCC2)NC(=O)[C@H](CCN)NC(=O)[C@H](Cc2ccc(O)cc2)N(C)C(=O)[C@H](CCCN)NC(=O)[C@H](CCC(=O)O)NC(=O)[C@H](Cc2ccc(-c3ccccc3)cc2)NC1=O (stereo partly drawn) [Example 1452] ({CH2CO}-Y(Carboxymethyl)[4Pal]DW[ξV][Bip]E[Orn][NMeY][Dab][Cha]VTCA-NH2; thioether N-14)
320	CC(C)C1NC(=O)[C@H](Cc2c[nH]c3ccccc23)NC(=O)[C@H](CC(=O)O)NC(=O)[C@H](Cc2ccc(OCC(=O)O)cc2)NC(=O)[C@H](CN)NC(=O)CSC[C@@H](C(=O)N[C@@H](C)C(N)=O)NC(=O)[C@H]([C@@H](C)O)NC(=O)[C@H](C(C)C)NC(=O)[C@H](CC2CCCCC2)NC(=O)[C@H](CCN)NC(=O)[C@H](Cc2ccc(O)cc2)N(C)C(=O)[C@H](CCCN)NC(=O)[C@H](CCC(=O)O)NC(=O)[C@H](Cc2ccc(-c3ccccc3)cc2)NC1=O (stereo partly drawn) [Example 1453] ({CH2CO}-[Dap]Y(Carboxymethyl)DW[ξV][Bip]E[Orn][NMeY][Dab][Cha]VTCA-NH2; thioether N-14)
